Patent US11466027B2, “Modulators of the NMDA receptor” (H. Lundbeck A/S, priority 2019, dated 2022)
Like-named read-outs stand apart in the source and are kept apart here.

Key:
[1] = tested on: High Frequency Oscillations (HFO) in the nucleus accumbens; experiment: Resting state electroencephalography (rsEEG) in rats; type: in vivo; settings: rat, 20 mg/kg, vs 10% captisol, FIG. 1
Experimental: On the day of surgery, rats (270-300 g) were anesthetized with a 0.25 ml/100 g subcutaneous (SC) injection of 1:1 hypnorm/Dormicum and mounted in a stereotaxic frame (David Kopf Instruments, Tujunga, Calif., USA) with blunt ear bars. Marcain (0.2 ml SC) was injected under the scalp, and gel (Neutral Opthta Eye Gel) put on the eyes to prevent the mucous membrane drying out. Holes were burred in the skull to allow for placement of three depth electrodes (E363-series; PlasticsOne, Roanoke, Va., USA) in medial prefrontal cortex (mPFC) (AP: 3.0 mm from the bregma suture, ML: −0.7 mm from the sagittal suture and DV: 3.0 mm from the dura), Nucleus accumbens (NAc): (AP+1.6 mm from the bregma suture, ML: −1.0 mm from the sagittal suture, DV: −6.7 mm from the dura) and thalamus (AP: −2.8 mm from the bregma suture, ML: +0.7 mm from the sagittal suture and DV: 4.4 mm from the dura) and three screw electrodes above the auditory cortex (A1) (AP: −4.8 mm from the bregma suture, ML: +6.4 mm from the sagittal suture), a reference electrode (AP: +8.0 mm and ML: −2.0 mm), and a ground electrode (AP: −5 mm, ML: +5 mm). […] Animal bodyweights were recorded daily. […]
Rats were handled daily and habituated to recording box the week before recording sessions. […] The analysis of the locomotor behaviour was based on the recorded accelerometer signal. […]

[2] = Microdialysis studies in rats (ventral hippocampus); type: in vivo, Male Sprague-Dawley rats; settings: 30 mg/kg subcutaneously, FIG. 2
Experimental: Male Sprague-Dawley rats, initially weighing 275-300 g, were used. The animals were housed under a 12-hr light/dark cycle under controlled conditions for regular in-door temperature (21±2° C.) and humidity (55±5%) with food and tap water available ad libitum.
Rats were anaesthetised with hypnorm/dormicum (2 ml/kg) and intracerebral guide cannulas.
(CMA/12) were stereotaxically implanted into the brain, aiming to position the dialysis probe tip in the ventral hippocampus (co-ordinates: 5.6 mm posterior to bregma, lateral −4.8 mm, 7.0 mm ventral to dura. Anchor screws and acrylic cement were used for fixation of the guide cannulas. The body temperature of the animals was monitored by rectal probe and maintained at 37° C. The rats were allowed to recover from surgery for 2 days, housed singly in cages.
On the day of the experiment a microdialysis probe (CMA/12, 0.5 mm diameter, 3 mm length) was inserted through the guide cannula. The probe was connected via a dual channel swivel to a microinjection pump. Perfusion of the microdialysis probe with filtered Ringer solution (145 mm NaCl, 3 mM KCl, 1 mM MgCl2, 1.2 mM CaCl2) was begun shortly before insertion of the probe into the brain and continued for the duration of the experiment at a constant flow rate of 1 μl/min. After 180 min of stabilisation, the experiments were initiated. […]

[3] = In vivo exposure (brain disposition) after intravenous bolus injection; design: species or system male Sprague Dawley rats; settings: male, Sprague-Dawley, rat, 2 mg/kg intravenous bolus, 30 min post dose
Experimental: Brain disposition of test compound was evaluated in male Sprague Dawley rats (standard body weight range). Briefly, discrete (nominal dose: 2 mg/kg, 2 ml/kg) or cassetted (nominal dose: 1 mg/kg/compound, 2 ml/kg) test compounds were administered by intravenous bolus injection (formulated in 10% hydroxypropyl-β-cyclodextrin or 10-20% Captisol, pH=3).
Serial blood samples were collected from a lateral tail vein at designated time points (n=3 per time point) then rats were put under deep isoflurane induced anesthesia prior to removal of brains (n=3 per time point). Blood was collected into K3-EDTA-coated tubes and the samples were gently turned upside-down to ensure a homogenous sample. The tubes were centrifuged at 3300×g for 10 min. at max 4° C. and plasma samples were transferred to Micronic tubes. […]
Seven calibration standards and three QC samples were prepared in plasma and brain homogenate, respectively, in the concentration range 10-10000 ng/mL. […] Study samples with expected concentration above upper limit of quantification were diluted with blank matrix. […]
Samples were analyzed using an AB Sciex API4000 triple quadrupole (TQ) mass spectrometer operated in positive and negative electrospray ionization and MS/MS mode (multiple reaction monitoring, MRM). […] Quantification was performed by linear regression, 1/x2 weighting.

[4] = biological target: NR1s1s2 (ligand binding domains of the NMDA receptor), glycine site (Rattus norvegicus, UniProt P35439); experiment: Scintillation Proximity Assay (SPA), displacement of [3H]-MDL-105,519; settings: radioligand used in SPA
Description: Scintillation Proximity Assay (SPA):
Normalized data are used to calculate Ki values.

Extracellular levels in the rat ventral hippocampus after systemic administration [2]	concentration at 30 min ([3]; brain, read-out: Total Brain concentration (ng/mL) 30 min post dose) [ng/mL]	concentration at 30 min ([3]; plasma, read-out: Total Plasma concentration (ng/mL) 30 min post dose) [ng/mL]	Compound	Effect in rsEEG (High Frequency Oscillations in the nucleus accumbens) compared to vehicle [1]	Kd [4] [nM]
considerable extracellular levels	8.4	270	Cc1ccnc2cc(C(=O)NC[C@@H](N)C(=O)O)sc12 [Compound 1e, (R)-2-amino-3-[(7-methylthieno[3,2-b]pyridine-2-carbonyl)amino]propanoic acid]	clear effect	
			O=C(O)C(=Cc1c(C(=O)O)[nH]c2cc(Cl)cc(Cl)c12)c1ccccc1 [[^3H]-MDL-105,519]		1.3
